In patent US12358932B2, “Chemical compounds” (BORAH, INC., priority 2019, dated 2025):

Key:
JAK = experiment: Biochemical Kinase Assay Protocol (JAK); conditions: compound list; + = noted target activity, number of * = preference
Protocol: Biochemical Kinase Assay Protocol (JAK, TrkA, Syk, Tyk2)
Reagent: Base Reaction buffer; 20 mM Hepes (pH 7.5), 10 mM MgCl2, 1 mM EGTA, 0.02% Brij™ 35, 0.02 mg/ml BSA, 0.1 mM Na3VO4, 2 mM DTT, 1% DMSO, where required cofactors are added individually to each kinase reaction.
• 1. Prepare indicated substrate in freshly prepared Base Reaction Buffer • 2. Deliver any required cofactors to the substrate solution above • 3. Deliver indicated kinase (JAK or TrkA) into the substrate solution and gently mix • 4. Deliver compounds in DMSO into the kinase reaction mixture by Acoustic technology (Echo550; nanoliter range), incubate for 20 minutes at room temperature • 5. Deliver 33P-ATP into the reaction mixture to initiate the reaction. • 6. Incubate kinase reaction for 2 hours at room temperature • 7. Reactions are spotted onto P81 ion exchange paper • 8. Detect kinase activity by filter-binding method. PDE4B Phosphodiesterase Assay

Recombinant human PDE4B = biological target: T1, Recombinant human PDE4B (Homo sapiens, UniProt Q07343); experiment: PDE4B Phosphodiesterase Assay; type: biochemical; parameters: key to Activity Note: PDE4: The (+) symbols identify a compound of the present disclosure with the noted target activity; +*: The (*) symbols indicate preferential activity, where the greater number identifies the most preferred compounds; +**: The (*) symbols indicate preferential activity, where the greater number identifies the most preferred compounds; +***: The (*) symbols indicate preferential activity, where the greater number identifies the most preferred compounds; conditions: compound list; + = noted target activity
T1 construct: aa 305-end; GST (N); made in house; host or cells: Sf9 insect cells (baculovirus)
Protocol: The assay is based on the fluorescence polarization measuring AMP/GMP production as a result of the enzyme activity by displacement of Tracer binding to the AMP/GMP antibody. • Reaction Buffer: 10 mM Tris-HCl, pH 7.5, 5 mM MgCl2, 0.01% Brij 35, 1 mM DTT and 1% DMSO. • Enzyme: Recombinant human PDE4B (Gene Accession #NM_002600; aa 305-end) was expressed by baculovirus in Sf9 insect cells using an N-terminal GST tag. Mw=78 kDa. • Substrate: 1 μM cAMP • Detection: Transcreener® AMP2/GMP2 Antibody AMP2/GMP2 AlexaFluor 633 Tracer Reaction Procedure: • 1. Prepared indicated enzyme and substrate in freshly prepared Reaction Buffer • 2. Delivered enzyme solution into the reaction well • 3. Delivered compounds in 100% DMSO into the enzyme solution by Acoustic technology (Echo550; nanoliter range), incubated for 10 min at room temperature • 4. Delivered substrate solution into the reaction well to initiate the reaction • 5. Incubated for 1 h at room temperature • 6. Added detection mixture (Tracer and antibody in the stop buffer) to stop the reaction and incubated for 90 min with gentle mixing. The fluorescence polarization was measured at Ex/Em 620/688.
Data Analysis: The FP signals were converted into nM product based on an AMP/GMP standard curve and calculated % Enzyme activity relative to DMSO control by Excel. The curve fit was performed using GraphPad prism.

T1 sequence (Q07343 305-736 limits assumed): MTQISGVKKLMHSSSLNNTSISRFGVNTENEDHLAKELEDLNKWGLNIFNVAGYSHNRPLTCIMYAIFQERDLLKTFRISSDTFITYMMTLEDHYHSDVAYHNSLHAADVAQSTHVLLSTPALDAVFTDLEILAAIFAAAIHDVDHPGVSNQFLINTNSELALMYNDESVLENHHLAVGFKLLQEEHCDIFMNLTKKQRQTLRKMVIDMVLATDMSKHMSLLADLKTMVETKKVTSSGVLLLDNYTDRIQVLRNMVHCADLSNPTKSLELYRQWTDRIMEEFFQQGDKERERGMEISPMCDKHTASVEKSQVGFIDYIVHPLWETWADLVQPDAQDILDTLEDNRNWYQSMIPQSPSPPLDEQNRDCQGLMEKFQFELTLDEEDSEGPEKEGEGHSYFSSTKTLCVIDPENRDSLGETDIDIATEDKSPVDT

Compound | Activity Note: JAK (JAK) | Activity Note: PDE4 (Recombinant human PDE4B)
Cc1cnc(Nc2cc(C)c3c(c2)CCOB3O)nc1NC1CCCC1 [6-((4-(cyclopentylamino)-5-methylpyrimidin-2-yl)amino)-8-methyl-3,4-dihydro-1H-benzo[c][1,2]oxaborinin-1-ol] | JAK+* | –
CC1OB(O)c2ccc(Nc3ncc(Cl)c(NC4CCCC4)n3)cc21 (centres unmarked) [5-((5-chloro-4-(cyclopentylamino)pyrimidin-2-yl)amino)-3-methylbenzo[c][1,2]oxaborol-1(3H)-ol] | JAK+*** | –
CCC(CC)Nc1nc(Nc2cc(C)c3c(c2)C(C)OB3O)ncc1C (centres unmarked) [3,7-dimethyl-5-((5-methyl-4-(pentan-3-ylamino)pyrimidin-2-yl)amino)benzo[c][1,2]oxaborol-1(3H)-ol] | JAK+*** | –
CCC(CC)Nc1nc(Nc2cc(C)c3c(c2)C(C)(C)OB3O)ncc1C [3,3,7-trimethyl-5-((5-methyl-4-(pentan-3-ylamino)pyrimidin-2-yl)amino)benzo[c][1,2]oxaborol-1(3H)-ol] | JAK+*** | –
OB1OCc2cc(Nc3ncc(Cl)c(NC4CCCC4)n3)cc(C(F)(F)F)c21 [5-((5-chloro-4-(cyclopentylamino)pyrimidin-2-yl)amino)-7-(trifluoromethyl)benzo[c][1,2]oxaborol-1(3H)-ol] | JAK+*** | –
Cc1cnc(Nc2ccc3c(c2)CCOB3O)nc1NC1CCCC1 [6-((4-(cyclopentylamino)-5-methylpyrimidin-2-yl)amino)-3,4-dihydro-1H-benzo[c][1,2]oxaborinin-1-ol] | JAK+*** | –
Cc1cnc(Nc2ccc3c(c2)C(C)OB3O)nc1Nc1ccccc1 (centres unmarked) [3-methyl-5-((5-methyl-4-(phenylamino)pyrimidin-2-yl)amino)benzo[c][1,2]oxaborol-1(3H)-ol] | JAK+*** | –
Cc1cnc(Nc2cc(C)c3c(c2)COB3O)nc1NC1CCCC1 [5-((4-(cyclopentylamino)-5-methylpyrimidin-2-yl)amino)-7-methylbenzo[c][1,2]oxaborol-1(3H)-ol] | JAK+*** | –
Cc1cnc(Nc2ccc3c(c2)B(O)OC3)nc1N[C@H]1CC[C@H](CO)CC1 [6-((4-(((1r,4r)-4-(hydroxymethyl)cyclohexyl)amino)-5-methylpyrimidin-2-yl)amino)benzo[c][1,2]oxaborol-1(3H)-ol] | JAK+* | –
Cc1cnc(Nc2ccc3c(c2)B(O)OC3(C)C)nc1Nc1cccc(S(C)(=O)=O)c1 [3,3-dimethyl-6-((5-methyl-4-((3-(methylsulfonyl)phenyl)amino)pyrimidin-2-yl)amino)benzo[c][1,2]oxaborol-1(3H)-ol] | JAK+** | –
Cc1cnc(Nc2cc(Cl)c3c(c2)COB3O)nc1Nc1ccccc1 [7-chloro-5-((5-methyl-4-(phenylamino)pyrimidin-2-yl)amino)benzo[c][1,2]oxaborol-1(3H)-ol] | JAK+*** | –
Cc1cnc(Nc2ccc3c(c2)B(O)OC3)nc1NC1CCCCC1 [6-((4-(cyclohexylamino)-5-methylpyrimidin-2-yl)amino)benzo[c][1,2]oxaborol-1(3H)-ol] | JAK+* | –
OB1OCc2cc(Nc3ncc(Cl)c(NC4CCCC4)n3)cc(Cl)c21 [7-chloro-5-((5-chloro-4-(cyclopentylamino)pyrimidin-2-yl)amino)benzo[c][1,2]oxaborol-1(3H)-ol] | JAK+*** | –
CCC(CC)Nc1nc(Nc2cc(Cl)c3c(c2)COB3O)ncc1C [7-chloro-5-((5-methyl-4-(pentan-3-ylamino)pyrimidin-2-yl)amino)benzo[c][1,2]oxaborol-1(3H)-ol] | JAK+*** | –
CCC(CC)Nc1nc(Nc2cc(C)c3c(c2)COB3O)ncc1C [7-methyl-5-((5-methyl-4-(pentan-3-ylamino)pyrimidin-2-yl)amino)benzo[c][1,2]oxaborol-1(3H)-ol] | JAK+*** | –
OB1OCc2cc(Nc3ncc(Cl)c(NC4CCCCC4)n3)ccc21 [5-((5-chloro-4-(cyclohexylamino)pyrimidin-2-yl)amino)benzo[c][1,2]oxaborol-1(3H)-ol] | – | +
CCC(CO)Nc1nc(Nc2ccc3c(c2)COB3O)ncc1Cl (centres unmarked) [5-((5-chloro-4-((1-hydroxybutan-2-yl)amino)pyrimidin-2-yl)amino)benzo[c][1,2]oxaborol-1(3H)-ol] | – | +
CCC(CC)Nc1nc(Nc2ccc3c(c2)COB3O)ncc1Cl [5-((5-chloro-4-(pentan-3-ylamino)pyrimidin-2-yl)amino)benzo[c][1,2]oxaborol-1(3H)-ol] | – | +

Compound | Activity Note: JAK (JAK) | Activity Note: PDE4 (Recombinant human PDE4B)
OB1OCc2cc(Nc3ncc(Cl)c(NC4CCCC4)n3)ccc21 [5-((5-chloro-4-(cyclopentylamino)pyrimidin-2-yl)amino)benzo[c][1,2]oxaborol-1(3H)-ol] | – | +
CSc1nc(Nc2ccc3c(c2)COB3O)ncc1Cl [5-((5-chloro-4-(methylthio)pyrimidin-2-yl)amino)benzo[c][1,2]oxaborol-1(3H)-ol] | – | +
Cc1cnc(Nc2ccc3c(c2)COB3O)nc1Nc1cccc(CO)c1 [5-((4-((3-(hydroxymethyl)phenyl)amino)-5-methylpyrimidin-2-yl)amino)benzo[c][1,2]oxaborol-1(3H)-ol] | – | +
CCC(CC)Nc1nc(Nc2cc(F)c3c(c2)COB3O)ncc1C [7-fluoro-5-((5-methyl-4-(pentan-3-ylamino)pyrimidin-2-yl)amino)benzo[c][1,2]oxaborol-1(3H)-ol] | – | +
CCOC(=O)c1cccc(Nc2nc(Nc3ccc4c(c3)COB4O)ncc2C)c1 [ethyl 3-((2-((1-hydroxy-1,3-dihydrobenzo[c][1,2]oxaborol-5-yl)amino)-5-methylpyrimidin-4-yl)amino)benzoate] | – | +
OB1OCc2cc(Nc3ncc(F)c(NCc4ccccc4)n3)ccc21 [5-((4-(benzylamino)-5-fluoropyrimidin-2-yl)amino)benzo[c][1,2]oxaborol-1(3H)-ol] | – | +
Cc1cnc(Nc2ccc3c(c2)COB3O)nc1NC1CCC1 [5-((4-(cyclobutylamino)-5-methylpyrimidin-2-yl)amino)benzo[c][1,2]oxaborol-1(3H)-ol] | – | +
Cc1cnc(Nc2ccc3c(c2)COB3O)nc1Nc1ccccc1OC(F)(F)F [5-((5-methyl-4-((2-(trifluoromethoxy)phenyl)amino)pyrimidin-2-yl)amino)benzo[c][1,2]oxaborol-1(3H)-ol] | – | +
OB1OCc2cc(Nc3ncc(F)c(NC4CCCC4)n3)ccc21 [5-((4-(cyclopentylamino)-5-fluoropyrimidin-2-yl)amino)benzo[c][1,2]oxaborol-1(3H)-ol] | – | +
OB1OCc2cc(Nc3nccc(NC4CCCCC4)n3)ccc21 [5-((4-(cyclohexylamino)pyrimidin-2-yl)amino)benzo[c][1,2]oxaborol-1(3H)-ol] | – | +
CCC(CC)Nc1nc(Nc2ccc3c(c2)COB3O)ncc1C(F)(F)F [5-((4-(pentan-3-ylamino)-5-(trifluoromethyl)pyrimidin-2-yl)amino)benzo[c][1,2]oxaborol-1(3H)-ol] | – | +
Cc1cnc(Nc2ccc3c(c2)COB3O)nc1NCCC1CC1 [5-((4-((2-cyclopropylethyl)amino)-5-methylpyrimidin-2-yl)amino)benzo[c][1,2]oxaborol-1(3H)-ol] | – | +
Cc1cnc(Nc2ccc3c(c2)COB3O)nc1Nc1ccccc1Cl [5-((4-((2-chlorophenyl)amino)-5-methylpyrimidin-2-yl)amino)benzo[c][1,2]oxaborol-1(3H)-ol] | – | +
CCCNc1nc(Nc2ccc3c(c2)COB3O)ncc1Cl [5-((5-chloro-4-(propylamino)pyrimidin-2-yl)amino)benzo[c][1,2]oxaborol-1(3H)-ol] | – | +
COc1ccccc1Nc1nc(Nc2ccc3c(c2)COB3O)ncc1C [5-((4-((2-methoxyphenyl)amino)-5-methylpyrimidin-2-yl)amino)benzo[c][1,2]oxaborol-1(3H)-ol] | – | +
Cc1cnc(Nc2ccc3c(c2)COB3O)nc1OC1CCCC1 [5-((4-(cyclopentyloxy)-5-methylpyrimidin-2-yl)amino)benzo[c][1,2]oxaborol-1(3H)-ol] | – | +
OB1OCc2cc(Nc3nccc(NC4CCCC4)n3)ccc21 [5-((4-(cyclopentylamino)pyrimidin-2-yl)amino)benzo[c][1,2]oxaborol-1(3H)-ol] | – | +
